# Assay results reported in patent US9777070B2, “Anti-PTK7 antibody-drug conjugates” (Pfizer Inc., priority 2014, dated 2017).
# Square brackets hold non-standard residues; d marks the D form. Peptide text beside a SMILES is read from it. * marks the point of attachment. Dolaproine = CO[C@@H]([C@@H]1CCCN1)[C@@H](C)C(=O)O; Dil = CC[C@H](C)[C@H](NC)[C@@H](CC(=O)O)OC; Doe = c1ccc(C[C@H](N*)c2nccs2)cc1; Aib = CC(C)(N)C(=O)O
# Tests used:
# [1] = tested on: H446 cells; test: In vitro cytotoxicity, MTS, 4 days; type: cell-based; details: Homo sapiens, NCI-H446, 96 h
# Protocol: (§1) The cytotoxicity of the antibody-drug conjugate hu24-vc0101 was evaluated on cell lines that express the target PTK7. The engineered HEK293T-PTK7 over-expressing cell line was plated into a clear flat-bottom tissue culture plate (BD Falcon) at 500 cells per 180 μL of cell culture media per well. Human cancer cell lines were also tested in this assay and plated at a density that was previously determined to be optimal for each cell line according to their rate of growth (H661 1500 cells/well and H446 9600 cells/well in 150 μl). The cells were incubated overnight at 37° C. in a 5% CO2 incubator. On the following day, the hu24-vc0101 ADC and the 8.84 Ab-vc0101 ADC (negative control) were added to the cells on a 10 point concentration curve in triplicate samples starting with 3 or 10 μg/mL with 1:3 dilutions in cell culture media. The plate was incubated in a 37° C., 5% CO2 incubator for 4 days. The MTS assay (Promega CellTiter 96 Aqueous Non-Radioactive Cell Proliferation Assay) was used according to the supplier's instructions. 30 μL (H446, H661) or 40 μL (HEK293T-PTK7) of the combined MTS reagent was added to each well, and the plate was incubated in a 37° C., 5% CO2 incubator for 2 hours. The OD was determined at 490 nm with a 96-well plate reader. The average reading from wells with media alone was subtracted from the readings of wells with cells to control for background OD.
# [2] = tested on: H661 cells; test: In vitro cytotoxicity, MTS, 4 days; type: cell-based; details: Homo sapiens, NCI-H661, 96 h
# Protocol: as §1
# [3] = tested on: H661 lung cancer cells; test: Microtubule structure by anti-tubulin immunofluorescence; type: cell-based, human; details: 48 hours, ADC or mAb 0-4 μg/mL, free 0101 0.1-10 nM, FIG. 22
# Protocol: The cells were then fixed in 3% paraformaldehyde, washed with PBS, permeabilized with 0.5% Triton-X® (Sigma Chemical) in PBS, washed with PBS, and incubated with blocking buffer (5% normal goat serum and 0.2% Tween-20 in PBS). Cells were incubated with the primary anti-α-tubulin antibody (Sigma NoT9026, clone DM1A) in blocking buffer for 1 hour at room temperature. Afterwards, the cells were washed with PBS and incubated for 30 minutes with an Alexa Fluor® 488-conjugated secondary antibody (Invitrogen Corp) and 4′,6-diamidino-2-phenylindole (DAPI) to stain the DNA. The cells were visualized on a Zeiss LSM 510 Meta confocal microscope.
# [4] = tested on: Breast-22 (BR22) TNBC PDX; test: In vivo efficacy, PDX tumor growth; design: species or system human tumor in NOD/SCID mice; details: 20 mg/kg
# Source text: (§2) The effects of anti-PTK7 antibody-drug conjugates were further evaluated on the in vivo growth of human tumor patient-derived xenografts (PDX). Primary tumor resection samples were procured from clinical sites following Institutional Review Board for the Protection of Human Subjects approval and in accordance with HIPAA regulations. Tumor fragments were stored and shipped in Hypothermasol (Biolife Solutions) on ice and were embedded in Matrigel (BD) containing a proprietary mix of growth factors and implanted subcutaneously into the mammary fatpad of female NOD/SCID mice within 24 hours of resection. Mice were monitored for health status daily and for tumor growth initially by visual inspection twice per week. Once the tumors were palpable, measurements of tumor volume began to track tumor growth and estimate cell doubling time. Tumor volume was estimated using the equation V=(A*B^2)/2 where A is the long axis and B is the short axis. When tumors reached a volume of 500 mm^3 to 1,500 mm^3, they were harvested for study and for re-transplant as a patient-derived xenograft (PDX). Depending on the line, mechanical and/or chemical dissociation can be used to separate the individual cells for passage. Live cells were inoculated into naïve animals with 10,000 to 50,000 cells per animals
# (§3) For efficacy studies, tumors were harvested from passaging studies and cells were dissociated into single cell suspension. Preparations were counted for live cells using Trypan blue exclusion and 10,000 to 50,000 cells were inoculated per mouse in Matrigel. […] Tumor growth was initially followed by palpability with measurements beginning once tumor volumes reached about 30 mm^3. Studies were randomized based on tumor size once a cohort of tumor-bearing mice reached 140 mm^3 to 180 mm^3. Animals were dosed by intraperitoneal injection twice a week for two weeks (q4dx4). Study groups were followed until individual mice or entire group tumor measurements reached 1200 mm^3 when sacrifice was indicated in accordance with IACUC protocol. For selected dosing studies, pharmacokinetic submandibular bleeds were performed at 2 hours, 36 hours and 72 hours. A volume of 10 μL of blood was immediately pipetted into 90 μL of HBS-P (GE Healthcare). Samples were stored at −80° C. prior to analysis. For each tumor measurement the tumor volume±standard error of the mean (SEM) is provided. GT=Group Terminated due to large tumor size.
# (§4) Animals were dosed every four days for four cycles (Q4Dx4) by intraperitoneal injection except the BR5 study which was by intravenous injection on the same schedule. Tumor measurements were recorded one or two times per week using digital calipers and tumor volume was estimated using the equation V=(A×B^2)/2 where A is the long axis and B is the short axis. Animal body weights were measured and recorded at least once a week. Study groups were followed until individual mice or entire group tumor measurements reached 1200 mm^3 at which point sacrifice was indicated in accordance with IACUC protocol. For the BR5 study, animals were sacrificed once tumor volume approached 15% of the body weight at staging in accordance with IACUC protocol.
# (§5) Tumor growth inhibition (TGI) was calculated using the equation % TGI=[1−(mean tumor volume of treated)/(mean tumor volume of vehicle)]. […] Tumor regression was defined as a reduction in mean tumor volume after dosing. In cases where tumors regressed, Time To Progression (TTP) indicates the number of days between the first does and the time at which mean tumor volume increased from the previous measurement to a statistically significant degree.
# [5] = tested on: Breast-31 (BR31) TNBC PDX; test: In vivo efficacy, PDX tumor growth; design: species or system human tumor in NOD/SCID mice; details: 20 mg/kg
# Source text: as §2, §3, §4, §5
# [6] = tested on: Breast-64 (BR64) TNBC PDX; test: In vivo efficacy, PDX tumor growth; design: species or system human tumor in NOD/SCID mice; details: 20 mg/kg
# Source text: as §2, §3, §4
# Tumor growth inhibition (TGI) was calculated using the equation % TGI=[1−(mean tumor volume of treated)/(mean tumor volume of vehicle)]. TGI was calculated at the latest possible time point, which was typically the last measurement before the control group was discontinued as described above. Tumor regression was defined as a reduction in mean tumor volume after dosing. In cases where tumors regressed, Time To Progression (TTP) indicates the number of days between the first does and the time at which mean tumor volume increased from the previous measurement to a statistically significant degree.
# [7] = tested on: BR13 TNBC breast tumors; test: Tumor-initiating cell (TIC) frequency by limit dilution analysis after in vivo treatment; design: species or system human tumor in mice; details: for # Animals with tumors: 20 mpk
# Protocol: To determine whether anti-PTK7 antibody-drug conjugate treatments reduced tumor-initiating cell (TIC) frequency in tumors, BR13 TNBC breast tumors were treated with 4 mg/kg hu24-vc0101 ADC, 4 mg/kg control IgG ADC, or 20 mg/kg docetaxel chemotherapy twice weekly for a total of 3 doses (Days 0, 3 & 7). Live, residual human tumor cells (i.e. hESA^+ mCD45^− mH-2Kd^−) were isolated from dissociated tumors at day 10 and re-implanted into naïve animals in a limit dilution analysis (LDA). Resulting tumor incidence was monitored for up to 40 weeks post-transplant. The day of tumor harvest (day 10) and serial transplantation was chosen based on when tumors were starting to regress following hu24-vc0101 exposure. Tumors were dissociated and stained with anti-human ESA, anti-mouse CD45, and anti-mouse H-2Kd antibodies. Three tumors per treatment group were pooled, and live human tumor cells were sorted by flow cytometry. Groups of 10 mice were injected with either 293, 73, 37 or 15 tumor cells sorted from control IgG ADC treated tumors; 159, 90, 40 or 10 tumor cells sorted from hu24-vc0101 treated tumors; or 257, 33 or 15 tumor cells sorted from docetaxel-treated tumors. Tumors in recipient mice were measured weekly and tumors that exceeded 200 mm^3 in recipient mice were scored as positive. Using Poisson distribution statistics, via L-Calc software (Stemcell Technologies, Vancouver, BC), injected cell doses of recipients with and without tumors by 40 weeks post-transplant were used to calculate the frequency of TIC after each treatment.
smiles,measurement,setting,value
"CC[C@H](C)[C@@H]([C@@H](CC(=O)N1CCC[C@H]1[C@H](OC)[C@@H](C)C(=O)N[C@@H](Cc1ccccc1)c1nccs1)OC)N(C)C(=O)[C@@H](NC(=O)C(C)(C)N)C(C)C [compound 0101, 2-methylalanyl-N-[(3R,4S,5S)-3-methoxy-1-{(2S)-2-[(1R,2R)-1-methoxy-2-methyl-3-oxo-3-{[(1S)-2-phenyl-1-(1,3-thiazol-2-yl)ethyl]amino}propyl]pyrrolidin-1-yl}-5-methyl-1-oxoheptan-4-yl]-N-methyl-L-valinamide] (H-[Aib]V[Dil][Dolaproine]-Doe)",IC50,[1],0.59 ng/mL
same,IC50,[2],0.33 ng/mL
same,effect on microtubule structure and cell cycle,[3],disrupted microtubule structure and led to G2/M cell cycle arrest
"CC(=O)O[C@@]12CO[C@@H]1C[C@H](O)[C@@]1(C)C(=O)[C@H](O)C3=C(C)[C@@H](OC(=O)[C@H](O)[C@@H](NC(=O)OC(C)(C)C)c4ccccc4)C[C@@](O)([C@@H](OC(=O)c4ccccc4)[C@H]21)C3(C)C [docetaxel, reference compound]",tumor volume ± SEM,[4]; Day 0,182 ± 21 mm^3
same,tumor volume ± SEM,[4]; Day 7,154 ± 23 mm^3
same,tumor volume ± SEM,[4]; Day 14,107 ± 51 mm^3
same,tumor volume ± SEM,[4]; Day 21,218 ± 98 mm^3
same,tumor volume ± SEM,[4]; Day 28,418 ± 165 mm^3
same,tumor volume ± SEM,[4]; Day 35,1191 ± 264 mm^3
same,tumor volume ± SEM,[5]; Day 0,259 ± 47 mm^3
same,tumor volume ± SEM,[5]; Day 7,331 ± 70 mm^3
same,tumor volume ± SEM,[5]; Day 14,371 ± 82 mm^3
same,tumor volume ± SEM,[5]; Day 21,451 ± 91 mm^3
same,tumor volume ± SEM,[5]; Day 28,510 ± 103 mm^3
same,tumor volume ± SEM,[5]; Day 35,614 ± 117 mm^3
same,tumor volume ± SEM,[5]; Day 42,790 ± 117 mm^3
same,tumor volume ± SEM,[5]; Day 49,837 ± 126 mm^3
same,tumor volume ± SEM,[5]; Day 63,1131 ± 148 mm^3
same,tumor volume ± SEM,[5]; Day 70,1317 ± 182 mm^3
same,tumor volume ± SEM,[6]; Day 0,543 ± 46 mm^3
same,tumor volume ± SEM,[6]; Day 7,1112 ± 97 mm^3
same,tumor volume ± SEM,[6]; Day 14,1805 ± 206 mm^3
same,"TIC frequency, fold lower than in control IgG ADC treated tumors","[7]; BR13, 20 mg/kg, Days 0, 3 & 7, tumors harvested day 10, p=0.09",2.1 fold
same,# Animals with tumors,"[7]; Group C1, 257 cells implanted per animal, 9 animals in group",8
same,# Animals with tumors,"[7]; Group C2, 33 cells implanted per animal, 8 animals in group",1
same,# Animals with tumors,"[7]; Group C3, 15 cells implanted per animal, 6 animals in group",0
